{
  "source": "patent US5013756A",
  "about": "“Catechol derivatives, a process of preparation thereof, and therapeutical compositions containing the same” (priority 1985, dated 1991)",
  "origin": "cited, not measured here",
  "system": "guinea pig ileum",
  "conditions": "histamine relative to LTC 4, molar basis; cited from earlier work",
  "data": [
    {"smiles": "NCCc1c[nH]cn1", "note": "[histamine]", "values": [
      {"measurement": "times less active than LTC 4 on a molar basis", "value": 200, "unit": "times"}
    ]}
  ]
}
